Test results published in patent US20140363384A1, “COMBINATION THERAPY FOR COPD” (CHIESI FARMACEUTICI S.p.A., priority 2009, published 2014).

Key:
[1] = Analysis of impurities/degradation products by HPLC/UV VIS; conditions: for Total impurities % Vs active ingredient: stored 3 months at 25° C./60% relative humidity
[2] = Stability of single, double and triple combination aerosol solution formulations: residual content of active ingredient in the can; assay type: physicochemical; conditions: for Residual % amount ± standard deviation: stored 3 months at 25° C./60% relative humidity, versus amount at time 0
Method: +25° C./60% relative humidity (accelerated storage conditions);
+30° C./65% relative humidity; and
+40° C./75% relative humidity.

[3] = triple combination FF+GLY+BDP, versus initial amount of the active ingredient
[4] = triple combination FF+GLY+BDP aerosol solution
[5] = triple combination, +5° C. to +40° C./75% RH, 1, 2 and 3 months

Row | SMILES | Total impurities % Vs active ingredient ([1]; double combination FF + BDP) | Total impurities % Vs active ingredient [1, 3] | Residual % amount ± standard deviation ([2]; double combination FF + BDP) | Residual % amount ± standard deviation [2, 4] | can content versus time and temperature of storage [2, 5] | Residual % amount ± standard deviation ([2]; double combination FF + Gly) | can content versus time and temperature of storage ([2]; double combination FF+GLY, all tested storage conditions) | can content versus time and temperature of storage ([2]; single agent GLY formulation in the presence of 1M HCl) | can content versus time and temperature of storage ([2]; single agent GLY formulation, acid omitted) | Total impurities % Vs active ingredient ([1]; double combination FF + Gly) | level of degradation products (HPLC/UV) ([1]; formulations comprising both formoterol and GLY)
1 | CCC(=O)OCC(=O)[C@@]1(OC(=O)CC)[C@@H](C)C[C@H]2[C@@H]3CCC4=CC(=O)C=C[C@]4(C)[C@@]3(Cl)[C@@H](O)C[C@@]21C [BDP, beclometasone dipropionate] | 0.20% | 0.21% | 98.9 ± 0.6% | 94.5 ± 0.3% | not significantly affected by time and temperature | – | – | – | – | – | –
2 | C[N+]1(C)CCC(OC(=O)C(O)(c2ccccc2)C2CCCC2)C1.[Cl-] (stereo not drawn) [Gly, 3-[(cyclopentylhydroxyphenyl-acetyl)oxy]-1,1-dimethylpyrrolidinium chloride] | – | – | – | 96.4 ± 1.3% | not significantly affected by time and temperature | 96.0 ± 0.1% | remains stable under all of the tested conditions | maintain a constant content | highly dependent on time and temperature of storage | – | –
3 | COc1ccc(C[C@@H](C)NC[C@H](O)c2ccc(O)c(NC=O)c2)cc1.COc1ccc(C[C@@H](C)NC[C@H](O)c2ccc(O)c(NC=O)c2)cc1.O=C(O)/C=C/C(=O)O [FF, formoterol fumarate] | 0.80% | 1.1% | – | – | – | – | – | – | – | 1.3% | high levels of degradation products
